Test results from ChEMBL document CHEMBL6103627, “(±)-Feionemycin A and Chromonemycins A-D, Rearranged Aromatic Polyketides Uncovered by Type II Polyketide Gene Cluster Expression” (J Nat Prod, 2025).
Counter-ions that a name gives are not always drawn.

Assays:
K562 = assay: Antitumor activity against human K562 cells assessed as inhibition cell growth by MTT assay; type: functional, cell-based
ASPC1 = assay: Antitumor activity against human ASPC1 cells assessed as inhibition of cell growth by SRB assay; type: functional, cell-based
[1] = Antitumor activity against human Cisplatin/etoposide-resistant NCI-H446/EP cells assessed as inhibition of cell growth by SRB assay; type: functional, cell-based
Staphylococcus aureus [2] = assay: Antimicrobial activity against methicillin-resistant Staphylococcus aureus assessed as inhibition of microbial growth incubated for 24 hrs by microdilution method; type: functional, organism-based
Bacillus cereus = assay: Antimicrobial activity against Bacillus cereus ATCC 4342 assessed as inhibition of microbial growth incubated for 24 hrs by microdilution method; type: functional, organism-based
MDA-MB-231 = assay: Antitumor activity against human MDA-MB-231 cells assessed as inhibition of cell growth by SRB assay; type: functional, cell-based
Staphylococcus aureus [3] = assay: Antimicrobial activity against Staphylococcus aureus ATCC 29213 assessed as inhibition of microbial growth incubated for 24 hrs by microdilution method; type: functional, organism-based
[4] = Antitumor activity against human L02 cells assessed as inhibition of cell growth by SRB assay; type: toxicity, cell-based
NCI-H446 = assay: Antitumor activity against human NCI-H446 cells assessed as inhibition of cell growth by SRB assay; type: functional, cell-based

Row | SMILES | IC50 (ASPC1) | IC50 (NCI-H446) | IC50 (K562) | IC50 [1] | Activity (Staphylococcus aureus [2]) | Activity (Bacillus cereus) | IC50 (MDA-MB-231) | Activity (Staphylococcus aureus [3]) | IC50 [4]
1 | Cc1cc(=O)c2c(CCCC(=O)Cc3cc(O)cc(=O)o3)cc(O)cc2o1 | > 50 µM | < 50 µM | > 50 µM | > 50 µM | Weak_effect | Weak_effect | > 50 µM | Weak_effect | < 50 µM
2 | CC1=CC(=O)c2c(O)cccc2[C@@]12Oc1cc(O)cc(C)c1C2=O | > 50 µM | 2.26 µM | > 50 µM | < 50 µM | Weak_effect | Weak_effect | > 50 µM | Weak_effect | > 50 µM
3 | CC1=CC(=O)c2c(O)cccc2[C@]12Oc1cc(O)cc(C)c1C2=O | > 50 µM | > 50 µM | > 50 µM | > 50 µM | Weak_effect | Weak_effect | > 50 µM | Weak_effect | > 50 µM
4 | Cc1cc(=O)c2c3c(c(O)cc2o1)[C@](O)(Cc1cc(=O)cc(O)o1)C[C@@H](O)C3 | > 50 µM | > 50 µM | > 50 µM | > 50 µM | – | – | > 50 µM | – | > 50 µM
5 | COc1cccc2c1C(=O)c1c(O)c3c(c(O)c1C2=O)C[C@@](O)(C(=O)CO)C[C@@H]3O[C@H]1C[C@H](N)[C@H](O)[C@H](C)O1 [DOXORUBICIN HYDROCHLORIDE] | 5.91 µM | 0.8 µM | – | 11.2 µM | – | – | – | – | 0.33 µM

Now from value to compound, other results behind:

Row | IC50 (ASPC1) | IC50 (NCI-H446) | SMILES | IC50 (K562) | IC50 [1] | Activity (Staphylococcus aureus [2]) | Activity (Bacillus cereus) | IC50 (MDA-MB-231) | Activity (Staphylococcus aureus [3]) | IC50 [4]
6 | > 50 µM | > 50 µM | Cc1cc(=O)c2c3c(c(O)cc2o1)/C(=C/c1cc(=O)cc(O)o1)C[C@@H](O)C3 | > 50 µM | > 50 µM | – | – | > 50 µM | – | > 50 µM
7 | < 50 µM | > 50 µM | Cc1cc(=O)c2c(C/C=C/[C@@H](O)Cc3cc(O)cc(=O)o3)cc(O)cc2o1 | > 50 µM | > 50 µM | – | – | > 50 µM | – | > 50 µM
